# Assay results published in US5053070A, “Pyrimidine derivatives, preparation processes thereof, herbicide containing the same, and herbicidal compositions containing the same along with other active ingredient” (Mitsui Toatsu Chemicals, Incorporated, priority 1988, dated 1991).
# Assays:
# [1] = system: ALS (acetolactate syntase); experiment: ALS enzyme assay (Test 1); type: biochemical, barnyardgrass; conditions: 1,000 ppm (0.5 mg/0.5 ml)
# Method in brief: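 Partially purified ALS from dark-grown pea and barnyardgrass seedlings incubated 1 h at 30° C with pyruvate, TPP, MgCl2 and FAD. Compounds tested at 1,000 ppm (0.5 mg/0.5 ml). Acetoin formed detected colorimetrically at 525 nm via creatine/α-naphthol, relative to blank and acid-stopped controls.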
# rice = experiment: Treatment of soil under submerged condition, post-emergence (Test 5), injury; type: in vivo; conditions: 30 g ai/a granule, 30 days later
# Method in brief: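 Weeds seeded or tubers planted in flooded soil in Wagner pots, with 2–3-leaf rice seedlings transplanted in pairs and grown in greenhouse. At barnyardgrass two-leaf stage, pots received a granule of the test composition at a predetermined amount. Weed emergence and rice injury were scored 30 days later.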
# narrowleaf waterplantain = experiment: Petri dish test (Test 6); type: in vivo; conditions: 336 h; seeds on filter paper, 25° C., 14 days; read-out: I80 (ppm)
# Method in brief: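 Narrowleaf waterplantain seeds placed on filter paper pre-treated with compound in acetone (solvent air-dried) in 9 cm Petri dishes with 10 ml water, grown at 25° C in light. Growth was scored after fourteen days as degree of damage against an untreated group.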
# barnyardgrass = experiment: Upland foliar application test (Test 3); type: in vivo; conditions: 30 g ai/a, foliar spray at 2-3 leaves, 30th day
# Method in brief: (§1)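 Upland-soil pots seeded with weeds and crops (incl. cotton, large crabgrass, johnsongrass, common lambsquarters), grown in greenhouse to 2-3 leaf stage. Emulsion diluted with water sprayed on foliage at 5 l per are via ULV sprayer. Weed damage and crop injury scored 30 days after spraying.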
# large crabgrass = experiment: Upland foliar application test (Test 3); type: in vivo; conditions: 30 g ai/a, foliar spray at 2-3 leaves, 30th day
# Method in brief: as §1
# common lambsquarters = experiment: Upland foliar application test (Test 3); type: in vivo; conditions: 30 g ai/a, foliar spray at 2-3 leaves, 30th day
# Method in brief: as §1
# green foxtail = experiment: Upland foliar application test (Test 3); type: in vivo; conditions: 30 g ai/a, foliar spray at 2-3 leaves, 30th day
# Method in brief: as §1
# redroot pigweed = experiment: Upland foliar application test (Test 3); type: in vivo; conditions: 30 g ai/a, foliar spray at 2-3 leaves, 30th day
# Method in brief: as §1
# johnsongrass = experiment: Upland foliar application test (Test 3); type: in vivo; conditions: 30 g ai/a, foliar spray at 2-3 leaves, 30th day
# Method in brief: as §1
# foxtail meadow = experiment: Upland foliar application test (Test 3); type: in vivo; conditions: 30 g ai/a, foliar spray at 2-3 leaves, 30th day
# Method in brief: as §1
# peanut = experiment: Upland foliar application test (Test 3), crop injury; type: in vivo; conditions: 30 g ai/a, foliar spray at 2-3 leaves, 30th day
# Method in brief: as §1
# soybean = experiment: as above; type: in vivo; conditions: 30 g ai/a, foliar spray at 2-3 leaves, 30th day
# Method in brief: as §1
# cotton = experiment: as above; type: in vivo; conditions: 30 g ai/a, foliar spray at 2-3 leaves, 30th day
# Method in brief: as §1
Structure (SMILES),Inhibitory activity (%) Barnyardgrass [1],Injury Rice (rice),IC80 (narrowleaf waterplantain),Herbicidal effects Barnyardgrass (barnyardgrass),Herbicidal effects Large crabgrass (large crabgrass),Herbicidal effects Common lambsquarters (common lambsquarters),Herbicidal effects Green foxtail (green foxtail),Herbicidal effects Redroot pigweed (redroot pigweed),Herbicidal effects Johnsongrass (johnsongrass),Herbicidal effects Foxtail meadow (foxtail meadow),Injury Peanut (peanut),Injury Soybean (soybean),Injury Cotton (cotton)
COc1cc(OC)nc(Oc2ccccc2C=NOCC=C(C)C)n1 [Compound No. 7],84%,0 (91-100 (No damages)),17 µg/mL,5 (0-5 (Death)),5 (0-5 (Death)),4 (6-10 (Severe damages)),5 (0-5 (Death)),5 (0-5 (Death)),5 (0-5 (Death)),5 (0-5 (Death)),0 (91-100 (No damages)),0 (91-100 (No damages)),0 (91-100 (No damages))
CC#CCON=Cc1ccccc1Oc1nc(OC)cc(OC)n1 [compound 10],55%,1 (71-90 (Slight damages)),17 µg/mL,5 (0-5 (Death)),5 (0-5 (Death)),4 (6-10 (Severe damages)),4 (6-10 (Severe damages)),5 (0-5 (Death)),5 (0-5 (Death)),4 (6-10 (Severe damages)),0 (91-100 (No damages)),0 (91-100 (No damages)),0 (91-100 (No damages))
"COc1cc(OC)nc(Oc2ccccc2C=O)n1 [B, reference compound]",98%,5 (0-5 (Death)),1 µg/mL,4 (6-10 (Severe damages)),4 (6-10 (Severe damages)),3 (11-40 (Medium damages)),4 (6-10 (Severe damages)),3 (11-40 (Medium damages)),4 (6-10 (Severe damages)),4 (6-10 (Severe damages)),5 (0-5 (Death)),5 (0-5 (Death)),5 (0-5 (Death))
"C#CCON=Cc1ccccc1Oc1nc(OC)cc(OC)n1 [Compound No. 13, 0-(2-propynyl)-2-(4,6-dimethoxy-2-pyrimidinyloxy)benzaldoxime]",85%,0 (91-100 (No damages)),5 µg/mL,5 (0-5 (Death)),5 (0-5 (Death)),4 (6-10 (Severe damages)),5 (0-5 (Death)),5 (0-5 (Death)),5 (0-5 (Death)),5 (0-5 (Death)),0 (91-100 (No damages)),0 (91-100 (No damages)),0 (91-100 (No damages))
COc1cc(OC)nc(Oc2ccccc2C=NOC2CCCCC2)n1 [Compound No. 3],22%,0 (91-100 (No damages)),100 µg/mL,5 (0-5 (Death)),4 (6-10 (Severe damages)),4 (6-10 (Severe damages)),5 (0-5 (Death)),4 (6-10 (Severe damages)),5 (0-5 (Death)),5 (0-5 (Death)),0 (91-100 (No damages)),0 (91-100 (No damages)),0 (91-100 (No damages))

# Second part, led by results:
Inhibitory activity (%) Barnyardgrass [1],Structure (SMILES),Injury Rice (rice),IC80 (narrowleaf waterplantain),Herbicidal effects Barnyardgrass (barnyardgrass),Herbicidal effects Large crabgrass (large crabgrass),Herbicidal effects Common lambsquarters (common lambsquarters),Herbicidal effects Green foxtail (green foxtail),Herbicidal effects Redroot pigweed (redroot pigweed),Herbicidal effects Johnsongrass (johnsongrass),Herbicidal effects Foxtail meadow (foxtail meadow),Injury Peanut (peanut),Injury Soybean (soybean),Injury Cotton (cotton)
16%,COc1cc(OC)nc(Oc2ccccc2C=NOCc2ccc(C)cc2)n1 [compound 19],0 (91-100 (No damages)),100 µg/mL,3 (11-40 (Medium damages)),3 (11-40 (Medium damages)),4 (6-10 (Severe damages)),5 (0-5 (Death)),4 (6-10 (Severe damages)),5 (0-5 (Death)),4 (6-10 (Severe damages)),0 (91-100 (No damages)),0 (91-100 (No damages)),0 (91-100 (No damages))
91%,COc1cc(OC)nc(Oc2ccccc2C=NOCC=Cc2ccccc2C(F)(F)F)n1 [compound 32],1 (71-90 (Slight damages)),4 µg/mL,5 (0-5 (Death)),5 (0-5 (Death)),4 (6-10 (Severe damages)),5 (0-5 (Death)),5 (0-5 (Death)),5 (0-5 (Death)),5 (0-5 (Death)),0 (91-100 (No damages)),0 (91-100 (No damages)),0 (91-100 (No damages))
39%,COc1cc(OC)nc(Oc2ccccc2C=NOCC=C(C)Cl)n1 [compound 12],0 (91-100 (No damages)),100 µg/mL,4 (6-10 (Severe damages)),4 (6-10 (Severe damages)),3 (11-40 (Medium damages)),4 (6-10 (Severe damages)),3 (11-40 (Medium damages)),5 (0-5 (Death)),4 (6-10 (Severe damages)),0 (91-100 (No damages)),0 (91-100 (No damages)),0 (91-100 (No damages))
93%,COc1cc(OC)nc(Oc2ccccc2C=NOCC#Cc2ccccc2)n1 [compound 42],0 (91-100 (No damages)),17 µg/mL,5 (0-5 (Death)),3 (11-40 (Medium damages)),4 (6-10 (Severe damages)),5 (0-5 (Death)),5 (0-5 (Death)),5 (0-5 (Death)),5 (0-5 (Death)),0 (91-100 (No damages)),0 (91-100 (No damages)),0 (91-100 (No damages))
98%,COc1cc(OC)nc(Oc2ccccc2C=NOCC=Cc2ccc(F)cc2)n1 [compound 29],1 (71-90 (Slight damages)),8 µg/mL,5 (0-5 (Death)),4 (6-10 (Severe damages)),4 (6-10 (Severe damages)),4 (6-10 (Severe damages)),5 (0-5 (Death)),5 (0-5 (Death)),4 (6-10 (Severe damages)),0 (91-100 (No damages)),0 (91-100 (No damages)),0 (91-100 (No damages))
91%,"COc1cc(OC)nc(Oc2ccccc2C=NOCC=Cc2cccc(C)c2)n1 [Compound No. 34, 0-(3-methylcinnamyl)-2-(4,6-dimethoxy-2-pyrimidinyloxy)benzaldoxime]",1 (71-90 (Slight damages)),2 µg/mL,5 (0-5 (Death)),4 (6-10 (Severe damages)),4 (6-10 (Severe damages)),5 (0-5 (Death)),4 (6-10 (Severe damages)),5 (0-5 (Death)),5 (0-5 (Death)),0 (91-100 (No damages)),0 (91-100 (No damages)),0 (91-100 (No damages))
59%,C=CCON=Cc1ccccc1Oc1nc(OC)cc(OC)n1 [Compound No. 4],0 (91-100 (No damages)),100 µg/mL,5 (0-5 (Death)),3 (11-40 (Medium damages)),3 (11-40 (Medium damages)),5 (0-5 (Death)),4 (6-10 (Severe damages)),5 (0-5 (Death)),5 (0-5 (Death)),0 (91-100 (No damages)),0 (91-100 (No damages)),0 (91-100 (No damages))
